Reference: US6737383B1, “Herbicidal oxadiazolidines” (priority 1999, dated 2004)

What was measured:
bamyardgrass = test: Test B flood test barnyardgrass; type: in vivo, Echinochloa crus-galli
Method in brief: (§1)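 Read-out is a visual response score from 0 (no effect) to 10 (complete control), assigned by comparison with untreated controls. Treatment was applied at the 2-leaf stage, and plants stayed in the greenhouse for twelve to sixteen days before scoring.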

corn = test: Test B pre/postemergence corn; type: in vivo, Zea mays
Method in brief: (§2)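 Herbicidal effect was estimated by eye on a ten-point control scale after plants spent twelve to sixteen days in a greenhouse following soil or foliar treatment. Foliar sprays targeted plants at one to four leaves; all doses were formulated in a non-phytotoxic solvent with surfactant.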

morningglory = test: Test B pre/postemergence morningglory; type: in vivo, Ipomoea hederacea
Method in brief: as §2

purple nutsedge = test: Test B pre/postemergence purple nutsedge; type: in vivo, Cyperus rotundus
Method in brief: as §2

giant foxtail = test: Test B pre/postemergence giant foxtail; type: in vivo, Setaria faberii
Method in brief: as §2

rape = test: Test B pre/postemergence rape; type: in vivo, Brassica napus
Method in brief: as §2

sugar beet = test: Test B pre/postemergence sugar beet; type: in vivo, Beta vulgaris; details: for Plant response rating, Sugarbeets: Postemergence
Method in brief: as §2

crabgrass = test: Test B pre/postemergence crabgrass; type: in vivo, Digitaria sanguinalis
Method in brief: as §2

bedstraw = test: Test B pre/postemergence bedstraw; type: in vivo, Galium aparine
Method in brief: as §2

smallflower flatsedge = test: Test B flood test smallflower flatsedge; type: in vivo, Cyperus difformis
Method in brief: as §1

velvetleaf = test: Test B pre/postemergence velvetleaf; type: in vivo, Abutilon theophrasti; details: for Plant response rating, Velvetleaf: Postemergence
Method in brief: as §2

cocklebur = test: Test B pre/postemergence cocklebur; type: in vivo, Xanthium strumarium
Method in brief: as §2

duck salad = test: Test B flood test duck salad; type: in vivo, Heteranthera limosa
Method in brief: as §1

wild oat = test: Test B pre/postemergence wild oat; type: in vivo, Avena fatua; details: for Plant response rating, Wild oats: Postemergence
Method in brief: as §2

blackgrass = test: Test B pre/postemergence blackgrass; type: in vivo, Alopecurus myosuroides
Method in brief: as §2

surinam grass = test: Test B pre/postemergence surinam grass; type: in vivo, Brachiaria decumbens
Method in brief: as §2

rice = test: Test B flood test rice; type: in vivo, Oryza sativa
Method in brief: as §1

soybean = test: Test B pre/postemergence soybean; type: in vivo, Glycine max; details: for Plant response rating, Soybean: Postemergence
Method in brief: as §2

pigweed = test: Test B pre/postemergence pigweed; type: in vivo, Amaranthus retroflexus; details: for Plant response rating, Redroot pigweed: Postemergence
Method in brief: as §2

wheat = test: Test B pre/postemergence wheat; type: in vivo, Triticum aestivum; details: for Plant response rating, Wheat: Postemergence
Method in brief: as §2

[1] = Rate 62 g/ha, flood test species, Pre-emergence, visual evaluation after twelve to sixteen days
[2] = Rate 125 g/ha, under heading Pre-emergence, flood test species, visual evaluation after twelve to sixteen days
[3] = Rate 250 g/ha, Pre-emergence (flood test species), scale 0 to 10, 0 is no effect, 10 is complete control
[4] = Rate 500 g/ha, Pre-emergence section of Table B, 0 to 10 scale (0 no effect, 10 complete control)
[5] = Postemergence, Rate 62 g/ha, scale of 0 to 10, 0 is no effect, 10 is complete control
[6] = Postemergence, Rate 125 g/ha, scale 0 to 10, 0 is no effect, 10 is complete control
[7] = Postemergence, Rate 500 g/ha, scale of 0 to 10 where 0 is no effect and 10 is complete control
[8] = Preemergence, Rate 62 g/ha, scale 0 to 10 (0 no effect, 10 complete control)
[9] = Preemergence, Rate 125 g/ha, scale 0 to 10, 0 is no effect, 10 is complete control
[10] = Preemergence, Rate 500 g/ha, scale of 0 to 10 where 0 is no effect and 10 is complete control
[11] = Rate 250 g/ha, Postemergence, scale of 0 to 10 where 0 is no effect and 10 is complete control
[12] = Rate 500 g/ha, scale of 0 to 10 where 0 is no effect and 10 is complete control
[13] = Rate 250 g/ha, scale of 0 to 10 where 0 is no effect and 10 is complete control

In the case of `CC(C)N(C(=O)n1oc(=O)n(CC2CC2)c1=O)c1ccccc1` [Compound 568], the “Plant response rating, Barnyardgrass (0 to 10 scale, 0 is no effect, 10 is complete control)” value (bamyardgrass; [1]) is reported as 0, the “Barnyardgrass plant response rating (0 to 10 scale, 0 is no effect, 10 is complete control)” value (bamyardgrass; [2]) is reported as 0 and the “Barnyardgrass plant response rating” value (bamyardgrass; [3]) is reported as 3. The “Barnyardgrass plant response rating” value (bamyardgrass; [4]) was 6, the “Corn plant response rating” value (corn; [5]) was 0 and the “Corn plant response rating” value (corn; [6]) was 0. The “Plant response rating, Corn” value (corn; [7]) was 5, the “Corn plant response rating” value (corn; [8]) was 0 and the “Corn plant response rating” value (corn; [9]) was 4. For the same compound, the “Corn plant response rating (0 to 10 scale)” value (corn; Preemergence, Rate 250 g/ha) was 5, the “Corn plant response rating” value (corn; [10]) was 9 and the “Plant response rating, Corn” value (corn; [11]) was 4. For the same compound, the “Morningglory plant response rating” value (morningglory; [5]) was 7, the “Morningglory plant response rating” value (morningglory; [6]) was 10 and the “Plant response rating, Morningglory” value (morningglory; [7]) was 10. For the same compound, the “Morningglory plant response rating” value (morningglory; [8]) was 0, the “Morningglory plant response rating” value (morningglory; [9]) was 0 and the “Morningglory plant response rating (0 to 10 scale)” value (morningglory; Preemergence, Rate 250 g/ha) was 2. For the same compound, the “Morningglory plant response rating” value (morningglory; [10]) was 6, the “Plant response rating, Morningglory” value (morningglory; [11]) was 10 and the “Nutsedge plant response rating” value (purple nutsedge; [5]) was 0. For the same compound, the “Nutsedge plant response rating” value (purple nutsedge; [6]) was 0, the “Plant response rating, Nutsedge” value (purple nutsedge; [7]) was 0 and the “Nutsedge plant response rating” value (purple nutsedge; [8]) was 0. For the same compound, the “Nutsedge plant response rating” value (purple nutsedge; [9]) was 0, the “Nutsedge plant response rating (0 to 10 scale)” value (purple nutsedge; Preemergence, Rate 250 g/ha) was 0 and the “Nutsedge plant response rating” value (purple nutsedge; [10]) was 3. The “Plant response rating, Nutsedge” value (purple nutsedge; [11]) was 0, the “Giant foxtail plant response rating” value (giant foxtail; [5]) was 7 and the “Giant foxtail plant response rating” value (giant foxtail; [6]) was 9. For the same compound, the “Plant response rating, Giant foxtail” value (giant foxtail; [7]) was 9, the “Giant foxtail plant response rating” value (giant foxtail; [8]) was 9 and the “Giant foxtail plant response rating” value (giant foxtail; [9]) was 10. The “Giant foxtail plant response rating (0 to 10 scale)” value (giant foxtail; Preemergence, Rate 250 g/ha) was 10, the “Giant foxtail plant response rating” value (giant foxtail; [10]) was 10 and the “Plant response rating, Giant foxtail” value (giant foxtail; [11]) was 9. The “Rape plant response rating” value (rape; [5]) was 0, the “Rape plant response rating” value (rape; [6]) was 0 and the “Plant response rating, Rape” value (rape; [7]) was 3. The “Rape plant response rating” value (rape; [8]) was 0, the “Rape plant response rating” value (rape; [9]) was 0 and the “Rape plant response rating (0 to 10 scale)” value (rape; Preemergence, Rate 250 g/ha) was 5. The “Rape plant response rating” value (rape; [10]) was 7, the “Plant response rating, Rape” value (rape; [11]) was 2 and the “Plant response rating, Sugarbeets” value (sugar beet; [12]) was 2. The “Sugarbeets plant response rating” value (sugar beet; [8]) was 5, the “Sugarbeets plant response rating” value (sugar beet; [9]) was 5 and the “Sugarbeets plant response rating (0 to 10 scale)” value (sugar beet; Preemergence, Rate 250 g/ha) was 6. The “Sugarbeets plant response rating” value (sugar beet; [10]) was 8, the “Plant response rating, Sugarbeets” value (sugar beet; [13]) was 1 and the “Crabgrass plant response rating” value (crabgrass; [5]) was 8. For the same compound, the “Crabgrass plant response rating” value (crabgrass; [6]) was 8, the “Plant response rating, Crabgrass” value (crabgrass; [7]) was 9 and the “Crabgrass plant response rating” value (crabgrass; [8]) was 7. For the same compound, the “Crabgrass plant response rating” value (crabgrass; [9]) was 7, the “Crabgrass plant response rating (0 to 10 scale)” value (crabgrass; Preemergence, Rate 250 g/ha) was 9 and the “Crabgrass plant response rating” value (crabgrass; [10]) was 10. For the same compound, the “Plant response rating, Crabgrass” value (crabgrass; [11]) was 9, the “Bedstraw plant response rating” value (bedstraw; [5]) was 0 and the “Bedstraw plant response rating” value (bedstraw; [6]) was 2. For the same compound, the “Bedstraw plant response rating” value (bedstraw; [8]) was 0, the “Bedstraw plant response rating (0 to 10 scale)” value (bedstraw; Preemergence, Rate 250 g/ha) was 3 and the “Bedstraw plant response rating” value (bedstraw; [10]) was 8. The “Plant response rating, S. Flatsedge (0 to 10 scale, 0 is no effect, 10 is complete control)” value (smallflower flatsedge; [1]) was 0, the “S. Flatsedge plant response rating (0 to 10 scale, 0 is no effect, 10 is complete control)” value (smallflower flatsedge; [2]) was 0 and the “S. Flatsedge plant response rating” value (smallflower flatsedge; [3]) was 0. The “S. Flatsedge plant response rating” value (smallflower flatsedge; [4]) was 4, the “Plant response rating, Velvetleaf” value (velvetleaf; [12]) was 8 and the “Velvetleaf plant response rating” value (velvetleaf; [8]) was 5. For the same compound, the “Velvetleaf plant response rating” value (velvetleaf; [9]) was 6, the “Velvetleaf plant response rating (0 to 10 scale)” value (velvetleaf; Preemergence, Rate 250 g/ha) was 6 and the “Velvetleaf plant response rating” value (velvetleaf; [10]) was 7. For the same compound, the “Plant response rating, Velvetleaf” value (velvetleaf; [13]) was 5, the “Cocklebur plant response rating” value (cocklebur; [5]) was 1 and the “Cocklebur plant response rating” value (cocklebur; [6]) was 1. For the same compound, the “Plant response rating, Cocklebur” value (cocklebur; [7]) was 6, the “Cocklebur plant response rating” value (cocklebur; [8]) was 0 and the “Cocklebur plant response rating” value (cocklebur; [9]) was 0. For the same compound, the “Cocklebur plant response rating (0 to 10 scale)” value (cocklebur; Preemergence, Rate 250 g/ha) was 0, the “Cocklebur plant response rating” value (cocklebur; [10]) was 2 and the “Plant response rating, Cocklebur” value (cocklebur; [11]) was 1. The “Plant response rating, Ducksalad (0 to 10 scale, 0 is no effect, 10 is complete control)” value (duck salad; [1]) was 0, the “Ducksalad plant response rating (0 to 10 scale, 0 is no effect, 10 is complete control)” value (duck salad; [2]) was 0 and the “Ducksalad plant response rating” value (duck salad; [3]) was 0. The “Ducksalad plant response rating” value (duck salad; [4]) was 2, the “Plant response rating, Wild oats” value (wild oat; [12]) was 6 and the “Wild oats plant response rating” value (wild oat; [8]) was 5. For the same compound, the “Wild oats plant response rating” value (wild oat; [9]) was 5, the “Wild oats plant response rating (0 to 10 scale)” value (wild oat; Preemergence, Rate 250 g/ha) was 6 and the “Wild oats plant response rating” value (wild oat; [10]) was 8. The “Plant response rating, Wild oats” value (wild oat; [13]) was 2, the “Blackgrass plant response rating” value (blackgrass; [5]) was 8 and the “Blackgrass plant response rating” value (blackgrass; [6]) was 8. The “Plant response rating, Blackgrass” value (blackgrass; [7]) was 9, the “Blackgrass plant response rating” value (blackgrass; [8]) was 5 and the “Blackgrass plant response rating” value (blackgrass; [9]) was 8. The “Blackgrass plant response rating (0 to 10 scale)” value (blackgrass; Preemergence, Rate 250 g/ha) was 8, the “Blackgrass plant response rating” value (blackgrass; [10]) was 9 and the “Plant response rating, Blackgrass” value (blackgrass; [11]) was 8. The “B. signalgrass plant response rating” value (surinam grass; [5]) was 1, the “B. signalgrass plant response rating” value (surinam grass; [6]) was 4 and the “Plant response rating, B. signalgrass” value (surinam grass; [7]) was 7. For the same compound, the “B. signalgrass plant response rating” value (surinam grass; [8]) was 3, the “B. signalgrass plant response rating” value (surinam grass; [9]) was 6 and the “B. signalgrass plant response rating (0 to 10 scale, 0 is no effect, 10 is complete control)” value (surinam grass; Preemergence, Rate 250 g/ha) was 8. The “B. signalgrass plant response rating” value (surinam grass; [10]) was 9, the “Plant response rating, B. signalgrass” value (surinam grass; [11]) was 7 and the “Plant response rating, Rice (0 to 10 scale, 0 is no effect, 10 is complete control)” value (rice; [1]) was 1. The “Rice plant response rating (0 to 10 scale, 0 is no effect, 10 is complete control)” value (rice; [2]) was 1, the “Rice plant response rating” value (rice; [3]) was 0 and the “Rice plant response rating” value (rice; [4]) was 0. For the same compound, the “Plant response rating, Soybean” value (soybean; [12]) was 6, the “Soybean plant response rating” value (soybean; [8]) was 0 and the “Soybean plant response rating” value (soybean; [9]) was 0. The “Soybean plant response rating (0 to 10 scale)” value (soybean; Preemergence, Rate 250 g/ha) was 3, the “Soybean plant response rating” value (soybean; [10]) was 9 and the “Plant response rating, Soybean” value (soybean; [13]) was 6. For the same compound, the “Plant response rating, Redroot pigweed” value (pigweed; [12]) was 2, the “Redroot pigweed plant response rating” value (pigweed; [8]) was 2 and the “Redroot pigweed plant response rating” value (pigweed; [9]) was 4. For the same compound, the “Redroot pigweed plant response rating (0 to 10 scale)” value (pigweed; Preemergence, Rate 250 g/ha) was 4, the “Redroot pigweed plant response rating” value (pigweed; [10]) was 8 and the “Plant response rating, Redroot pigweed” value (pigweed; [13]) was 0. For the same compound, the “Plant response rating, Wheat” value (wheat; [12]) was 5, the “Wheat plant response rating” value (wheat; [8]) was 0 and the “Wheat plant response rating” value (wheat; [9]) was 0. For the same compound, the “Wheat plant response rating (0 to 10 scale)” value (wheat; Preemergence, Rate 250 g/ha) was 0, the “Wheat plant response rating” value (wheat; [10]) was 5 and the “Plant response rating, Wheat” value (wheat; [13]) was 4.
